# From patent publication US10688110B2 (NanGenex Nanotechnology Incorporated, priority 2015, dated 2020)
# Read-outs that look alike come from different tables or passages of the source.
# What was measured:
# PAMPA permeability = format: in vitro ADME; conditions: pH 7, simulated saliva condition
# [1] = healthy subjects, within the clinical dose range; cited from earlier work
# [2] = cited from earlier work
# [3] = cited from earlier work; remark: listed apart in the source
# [4] = single oral dose of radiolabeled drug
structure (smiles),measurement,setting,value
"Cc1ccc(-c2cc(C(F)(F)F)nn2-c2ccc(S(N)(=O)=O)cc2)cc1 [Celecoxib, 4-[5-(4-methylphenyl)-3-(trifluoromethyl)-1H-pyrazol-1-yl] benzenesulfonamide]",Papp,PAMPA permeability,0.3 ×10⁻⁶ cm/s
same,protein bound,[1],~97%
same,time of peak plasma levels,[2]; after an oral dose,approximately 3 hrs
same,effective half-life,[2]; fasted conditions,approximately 11 hours
same,dose proportionality of Cmax and AUC,"[2]; fasting conditions, up to 200 mg BID",roughly dose-proportional
same,"overall systemic exposure (AUC), intact capsule vs capsule contents sprinkled on applesauce",[2]; healthy adult volunteers,equivalent
same,apparent plasma clearance (CL/F),"[2]; human, in vivo",about 500 mL/min
same,unchanged drug recovered in the urine and feces,"[2]; human, in vivo",< 3%
same,steady-state conditions reached,[2]; multiple dosing,≤ 5 days
same,time of peak plasma levels,"[2]; single dose of 200 mg of current formulation, oral",3 h
same,onset of pain relief,[2]; single dose of 200 mg of current formulation,≥ 1 h
same,dose excreted in the feces,[2]; [4],approximately 57%
same,dose excreted into the urine,[2]; [4],27%
same,solubility in methanol and chloroform,[3],soluble
same,solubility in water,[3],insoluble
